Source: patent US8759390B2, “Chromene modulators of chemokine receptor activity” (Bristol-Myers Squibb Company, priority 2008, dated 2014)

These compounds were tested against T1, CCR2 (Homo sapiens, UniProt P41597) (assay: CCR2 binding (125I-human MCP-1 competition on human PBMC / THP-1 cells)). Conditions: n = 1 unless otherwise noted; tested in one of the assays described.
T1 construct: THP-1 human monocytic leukemic cell line, which expresses endogenous CCR2; endogenous in cells; host or cells: THP-1 human monocytic leukemia cells, or human PBMC / human monocytes
T1 sequence (P41597 1-360 isoform P41597-2): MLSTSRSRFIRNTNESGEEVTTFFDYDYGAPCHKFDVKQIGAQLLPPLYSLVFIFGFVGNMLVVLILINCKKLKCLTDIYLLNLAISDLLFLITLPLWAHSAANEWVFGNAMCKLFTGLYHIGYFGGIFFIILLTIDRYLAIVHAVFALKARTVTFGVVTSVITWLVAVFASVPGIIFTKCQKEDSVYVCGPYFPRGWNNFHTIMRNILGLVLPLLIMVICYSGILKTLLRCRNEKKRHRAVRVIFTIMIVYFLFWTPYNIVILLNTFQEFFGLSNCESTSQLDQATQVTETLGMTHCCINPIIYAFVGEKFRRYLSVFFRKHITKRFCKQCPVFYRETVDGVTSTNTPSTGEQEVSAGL
Protocol: Antagonism of MCP-1 Binding to Human PBMC
Millipore filter plates (#MABVN1250) are treated with 100 μl of binding buffer (0.5% bovine serum albumin, 20 mM HEPES buffer and 5 mM magnesium chloride in RPMI 1640 media) for thirty minutes at room temperature. To measure binding, 50 μl of binding buffer, with or without a known concentration compound, is combined with 50 μl of ^125-I labeled human MCP-1 (to give a final concentration of […] radioligand) and 50 μl of binding buffer containing 5×10^5 cells. Cells used for such binding assays can include human peripheral blood mononuclear cells isolated by Ficoll-Hypaque gradient centrifugation, human monocytes (Weiner et al., J. Immunol. Methods. 1980, 36, 89), or the THP-1 cell line which expresses the endogenous receptor. The mixture of compound, cells and radioligand are incubated at room temperature for thirty minutes. Plates are placed onto a vacuum manifold, vacuum applied, and the plates washed three times with binding buffer containing 0.5M NaCl. The plastic skirt is removed from the plate, the plate allowed to air dry, the wells punched out and counted. The percent inhibition of binding is calculated using the total counts obtained in the absence of any competing compound and the background binding determined by addition of 100 nM MCP-1 in place of the test compound.
THP-1 Monocytic Cell Binding: Whole Cell-Based Assay
The human CCR2 binding assay was also established with the THP-1 human monocytic leukemic cell line, which expresses endogenous CCR2, using ^125I-human MCP-1 as the tracer ligand. Radioligand competition binding assays were used for assessment of binding affinity of test compounds to the CCR2 receptor. For radioligand competition studies, 100 μl containing 2.5×10^5 THP-1 cells/well (in assay buffer containing 50 mM HEPES, pH7.4, 5mM MgCl2, 1 mM CaCl2 and 0.5% BSA) were added to 96-well assay plates containing the test compounds in 3-fold serial dilution, with final concentrations ranging from 5 μM to […]. Subsequently, 50 μl ^125I-MCP-1 radioligand at a final concentration of 0.2 nM in assay buffer were added to the reaction. After a 90 minute incubation period at room temperature, the binding reaction was terminated by harvesting on GF/B filter plates (PerkinElmer Cat. No. 6005177) followed by washing with ice-cold wash buffer (50 mM HEPES, pH 7.4, 0.1% BSA, 0.5 M NaCl) to remove unbound ligand. After washing, the plate was dried for 45 minutes at 60° C. followed by addition of 40 μl MicroScint 20 scintillation fluid, sealed and analyzed by the Packard TopCount reader. Non-specific binding was determined in the presence of 10 μM (a molar excess of […]) of an in-house CCR2 small molecule antagonist (CCR2 IC50=2 nM). Specific binding of ^125I-MCP-1 was calculated as the difference between total and non-specific binding. The competition data was plotted as a percentage inhibition of radioligand specific bound in the absence of test compound (percent of total signal). After correcting for non-specific binding, IC50 values were determined The IC50 is defined as the concentration of test compound required to reduce ^125I-MCP-1 specific binding by 50% and was calculated using the four parameter logistic equation to fit the normalized data.

| Compound | Ki [nM] |
| --- | --- |
| CC1(c2ccc(Cl)c(Cl)c2)Oc2ccccc2C=C1C(=O)O (racemic) [Example 4-1, 2-(3,4-dichlorophenyl)-2-methyl-2H-chromene-3-carboxylic acid] | 220 |
| O=C(O)C1=Cc2ccccc2OC1c1ccccn1 (racemic) [Example 5-21, 2-(pyridin-2-yl)-2H-chromene-3-carboxylic acid] | 1400 |
| O=C(O)C1=Cc2ccccc2OC1c1ccc(Cl)c(F)c1 (racemic) [Example 5-7, 2-(3-fluoro-4-chlorophenyl)-2H-chromene-3-carboxylic acid] | 290 |
| O=C(O)C1=Cc2ccccc2OC1c1ccc(Cl)c(C(F)(F)F)c1 (racemic) [Example 2-1, 2-(4-chloro-3-(trifluoromethyl)phenyl)-2H-chromene-3-carboxylic acid] | 75 |
| O=C(O)C1=Cc2ccccc2OC1c1cccc(C(F)(F)F)n1 (racemic) [Example 5-25, 2-(6-trifluoromethyl-pyridin-2-yl)-2H-chromene-3-carboxylic acid] | 8300 |
| O=C(O)C1=Cc2ccccc2OC1c1ccc(F)c(F)c1 (racemic) [Example 5-11, 2-(3,4-difluorophenyl)-2H-chromene-3-carboxylic acid] | 8600 |
| O=C(O)C1=Cc2ccccc2OC1c1ccc(Cl)c(Cl)c1 (racemic) [Example 5-1, 2-(3,4-dichlorophenyl)-2H-chromene-3-carboxylic acid] | 140 |
| Cc1cc(C2Oc3ccccc3C=C2C(=O)O)ccc1Cl (racemic) [Example 5-14, 2-(3-methyl-4-chlorophenyl)-2H-chromene-3-carboxylic acid] | 160 |
| O=C(O)C1=Cc2ccccc2OC1c1ccc(F)c(C(F)(F)F)c1 (racemic) [Example 5-24, 2-(3-trifluoromethyl-4-fluoro-phenyl)-2H-chromene-3-carboxylic acid] | 1100 |

Next, values leading:

| Ki [nM] | Compound |
| --- | --- |
| 80 | O=C(O)C1=Cc2ccccc2OC1c1ccc(Cl)c(Cl)c1 (single isomer, unassigned; (-)) [Example 6a, (−)-2-(3,4-dichlorophenyl)-2H-chromene-3-carboxylic acid] |
| 2900 | COc1cc(C2Oc3ccccc3C=C2C(=O)O)ccc1Cl (racemic) [Example 7-1, 2-(3-methoxy-4-chlorophenyl)-2H-chromene-3-carboxylic acid] |
| 720 | O=C(O)C1=Cc2ccc(Br)cc2OC1c1ccc(Cl)c(Cl)c1 (racemic) [Example 9-5, 2-(3,4-dichlorophenyl)-7-bromo-2H-chromene-3-carboxylic acid] |
